From patent US11572590B2, “Methods for evaluating tumor cell spheroids using 3D microfluidic cell culture device” (Dana-Farber Cancer Institute, Inc., priority 2017, dated 2023) come the findings set out here.

What is called inhibition is the percentage by which the read-out fell short of the control.

Read-outs that look alike come from different tables or passages of the source.

What all share (experiment): SelectScreen Kinase Profiling, single point inhibition and IC50 for off-target kinases
Holding throughout (assay type): biochemical

In experiment [1] the target is off-target kinases (Homo sapiens, UniProt P07947). Particulars: YES1, ATP Km app, ZLYTE.
Experiment [2] addresses off-target kinases (Homo sapiens, UniProt P00519, Y253F). Particulars: ABL1 Y253F, ATP Km app, ZLYTE.
Experiment [3] concerns the target off-target kinases (Homo sapiens, UniProt P19525). Particulars: EIF2AK2 (PKR), LanthaScreen Binding. (In general: TR-FRET usually uses a lanthanide donor and a delayed reading to cut background.)
The target in experiment [4] is T1, off-target kinases (Homo sapiens, UniProt Q04771, R206H).
T1 sequence (Q04771 21-509 R206H): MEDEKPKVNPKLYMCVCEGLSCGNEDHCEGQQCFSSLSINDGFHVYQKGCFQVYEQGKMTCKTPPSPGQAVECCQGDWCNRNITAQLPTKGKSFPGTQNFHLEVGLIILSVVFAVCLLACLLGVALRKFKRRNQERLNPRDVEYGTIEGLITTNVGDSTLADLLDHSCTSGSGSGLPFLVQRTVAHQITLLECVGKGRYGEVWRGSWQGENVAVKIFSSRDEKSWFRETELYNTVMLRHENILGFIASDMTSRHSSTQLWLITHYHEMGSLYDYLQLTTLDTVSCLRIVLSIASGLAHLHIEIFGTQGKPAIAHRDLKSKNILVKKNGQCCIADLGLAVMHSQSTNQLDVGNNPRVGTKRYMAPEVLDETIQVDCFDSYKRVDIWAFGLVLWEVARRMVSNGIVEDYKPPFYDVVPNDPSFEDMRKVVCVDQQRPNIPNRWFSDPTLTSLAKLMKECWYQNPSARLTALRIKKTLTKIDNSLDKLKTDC
Particulars: ACVR1 (ALK2) R206H, LanthaScreen Binding.

Experiment [5] concerns the target T2, off-target kinases (Homo sapiens, UniProt Q9H2K8).
T2 sequence (Q9H2K8 1-898): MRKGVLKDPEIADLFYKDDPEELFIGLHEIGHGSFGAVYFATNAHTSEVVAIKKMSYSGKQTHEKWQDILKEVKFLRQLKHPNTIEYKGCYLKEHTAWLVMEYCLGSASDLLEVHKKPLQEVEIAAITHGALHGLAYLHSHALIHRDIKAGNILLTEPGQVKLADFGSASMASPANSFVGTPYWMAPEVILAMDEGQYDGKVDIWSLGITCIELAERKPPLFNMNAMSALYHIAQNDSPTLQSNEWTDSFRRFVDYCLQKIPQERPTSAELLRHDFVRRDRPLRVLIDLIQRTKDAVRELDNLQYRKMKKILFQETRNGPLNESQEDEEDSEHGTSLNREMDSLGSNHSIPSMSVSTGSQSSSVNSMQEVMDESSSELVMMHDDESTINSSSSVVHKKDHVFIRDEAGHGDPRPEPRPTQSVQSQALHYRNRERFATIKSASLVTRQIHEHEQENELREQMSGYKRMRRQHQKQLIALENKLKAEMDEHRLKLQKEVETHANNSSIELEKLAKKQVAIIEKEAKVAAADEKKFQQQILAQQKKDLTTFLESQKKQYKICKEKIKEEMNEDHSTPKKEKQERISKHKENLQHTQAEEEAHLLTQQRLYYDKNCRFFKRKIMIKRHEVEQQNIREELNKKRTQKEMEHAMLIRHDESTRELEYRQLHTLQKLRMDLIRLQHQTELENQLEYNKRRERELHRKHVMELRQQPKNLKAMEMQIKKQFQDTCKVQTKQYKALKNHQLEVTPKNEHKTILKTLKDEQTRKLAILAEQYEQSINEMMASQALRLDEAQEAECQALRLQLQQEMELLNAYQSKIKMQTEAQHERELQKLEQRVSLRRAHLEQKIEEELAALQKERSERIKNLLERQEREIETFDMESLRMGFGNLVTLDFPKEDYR
Particulars: TAOK3 (JIK), LanthaScreen Binding.

Chain of off-target kinases (Homo sapiens, UniProt P07947) (P07947 whole entry): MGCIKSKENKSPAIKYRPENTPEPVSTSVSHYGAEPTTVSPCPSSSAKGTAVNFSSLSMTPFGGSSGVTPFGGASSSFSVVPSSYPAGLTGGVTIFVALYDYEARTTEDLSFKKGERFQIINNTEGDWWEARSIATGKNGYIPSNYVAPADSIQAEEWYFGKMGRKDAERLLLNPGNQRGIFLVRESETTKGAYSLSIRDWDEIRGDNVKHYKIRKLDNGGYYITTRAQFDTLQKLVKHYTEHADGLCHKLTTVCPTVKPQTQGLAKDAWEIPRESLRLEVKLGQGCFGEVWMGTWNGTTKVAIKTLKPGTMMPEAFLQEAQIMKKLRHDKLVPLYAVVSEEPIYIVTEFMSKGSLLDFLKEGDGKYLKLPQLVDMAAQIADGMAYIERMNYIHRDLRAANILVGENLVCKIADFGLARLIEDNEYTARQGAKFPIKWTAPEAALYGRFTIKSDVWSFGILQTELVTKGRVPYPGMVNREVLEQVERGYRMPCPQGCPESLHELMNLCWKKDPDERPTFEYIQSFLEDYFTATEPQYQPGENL
Chain of off-target kinases (Homo sapiens, UniProt P19525) (P19525 whole entry): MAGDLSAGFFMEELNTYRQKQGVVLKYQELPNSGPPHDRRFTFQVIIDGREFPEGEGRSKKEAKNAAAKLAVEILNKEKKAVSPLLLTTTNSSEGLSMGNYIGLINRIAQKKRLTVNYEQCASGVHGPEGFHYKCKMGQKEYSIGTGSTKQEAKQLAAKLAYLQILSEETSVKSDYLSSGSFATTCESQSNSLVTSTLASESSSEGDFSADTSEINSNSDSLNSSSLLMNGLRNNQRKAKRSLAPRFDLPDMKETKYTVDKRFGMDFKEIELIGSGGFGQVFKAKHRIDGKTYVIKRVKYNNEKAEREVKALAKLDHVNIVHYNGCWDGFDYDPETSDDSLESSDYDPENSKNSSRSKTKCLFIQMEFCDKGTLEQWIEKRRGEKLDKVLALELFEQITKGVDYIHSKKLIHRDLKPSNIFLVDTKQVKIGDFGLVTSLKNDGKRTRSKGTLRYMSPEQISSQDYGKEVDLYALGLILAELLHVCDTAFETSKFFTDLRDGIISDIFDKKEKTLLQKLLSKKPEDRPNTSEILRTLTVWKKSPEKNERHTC

Take `N#Cc1cc(-c2ncnc(Nc3ccc(N4CCN(C5COC5)CC4)cc3)n2)ccc1OC1CCOCC1` [Compound 1, 5-(4-((4-(4-(oxetan-3-yl)piperazin-1-yl)phenyl)amino)-1,3,5-triazin-2-yl)-2-((tetrahydro-2H-pyran-4-yl)oxy)benzonitrile]: the inhibition in experiment [1] (read-out: % Inhibition 1) worked out at 55%; in experiment [1] (read-out: % Inhibition 2), 51%; in experiment [1] (read-out: % Inhibition Avg), 53%; in experiment [2] (read-out: % Inhibition 1) it was 61%; in experiment [2] (read-out: % Inhibition 2), 48%; in experiment [2] (read-out: % Inhibition Avg), 54%. The inhibition in experiment [3] (read-out: % Inhibition 1) is 90%; in experiment [3] (read-out: % Inhibition 2) it was 89%; in experiment [3] (read-out: % Inhibition Avg), 89%; in experiment [4] (read-out: % Inhibition 1), 88%; in experiment [4] (read-out: % Inhibition 2), 93%; in experiment [4] (read-out: % Inhibition Avg), 91%. Moreover, the values for the inhibition in experiment [5] (read-out: % Inhibition 1), in experiment [5] (read-out: % Inhibition 2) and in experiment [5] (read-out: % Inhibition Avg) were 3%, 1% and 2%, respectively.
